Values of other authors as cited in patent US20080299050A1, “TOPICAL THERAPIES FOR ORAL MUCOSITIS AND OTHER CONDITIONS” (DrugTech Corporation, priority 2006, published 2008).

Assays:
gingiva = conditions: administered systemically
gingival wound = conditions: by mouth for up to 8 weeks prior to gingival excision
[1] = system: human slin fibroblast cultures
[2] = very large dose applied topically to a pressure ulcer

SMILES | side effect (gingiva) | gingival wound healing (gingival wound) | cell proliferation (enhancing effect) ([1]; higher concentration (25 or 50 μg/ml) or longer incubation time (25 h or 48 h)) | cell proliferation ([1]; low concentration (5 μg/ml) and short incubation time (3 h)) | systemic absorption of phenyloin [2]
O=C1N=C([O-])NC1(c1ccccc1)c1ccccc1.[Na+] [phenyloin sodium] | gingival hyperplasia | greatly enhanced |  |  | 
O=C1NC(=O)C(c2ccccc2)(c2ccccc2)N1 [phenyloin, 5,5-diphenyl-2,4-imidazolidinedione] |  |  | reduced or reversed | enhanced | little systemic absorption
